In one series the test system is MONO-MAC-6. The series is described as follows: Inhibitory activity against monomac6 (MM6) human monocytic cell line. In kind it is functional, cell-based.
A short description of series [1]: Area under curve was determined in rat after oral administration at a concentration 30 mg/kg. In kind it is ADME, organism-based. Also noted: dose 30 mg/kg, route oral. As to conditions: in vivo; call rule not given here.
In a further series the test system is Rattus norvegicus. The series is described as follows: Area under curve was determined in rat after oral administration at a concentration 30 mg/kg; NA= Not active. Format: ADME, organism-based. Also noted: dose 30 mg/kg, route oral. As to conditions: in vivo.
Series [2] can be described thus: Cmax in dog plasma after 30mg/kg oral dose. In kind it is ADME, organism-based, Canis lupus familiaris. Also noted: dose 30 mg/kg, route oral.
Series [3] is described as follows: Cmax in rat plasma after 30mg/kg oral dose. In kind it is ADME, organism-based. Also noted: dose 30 mg/kg, route oral.
For series [4], the system named is Mus musculus. The experiment in a line: Number of paws at risk inflamed by murine collagen -induced arthritis(MCIA) in mice after peroral administration at a concentration 5 mg/kg. Format: functional. As to conditions: route oral.
For series [5], the system named is Mus musculus. The series is described as follows: Inhibition of murine collagen -induced arthritis(MCIA) in mice after peroral administration at a concentration 45 mg/kg. Format: functional. As to conditions: route oral.
Series [6] concerns Mus musculus. The experiment in a line: Number of positive paws that was inflamed by murine collagen -induced arthritis(MCIA) in mice after peroral administration 13 day at a concentration 2 mg/kg. In kind it is functional. As to conditions: route oral.
Series [7] concerns Mus musculus. The experiment in a line: Reduction of murine collagen -induced arthritis(MCIA) in mice after peroral administration at a concentration 15 mg/kg. Format: functional. As to conditions: route oral.
The subject of series [8] is Mus musculus. The experiment in a line: Reduction of murine collagen -induced arthritis(MCIA) in mice after peroral administration at a concentration 45 mg/kg. In kind it is functional. As to conditions: route oral.
Series [9] concerns Mus musculus. The experiment in a line: Reduction of murine collagen -induced arthritis(MCIA) in mice after peroral administration at a concentration 120 mg/kg. As to conditions: route oral. In kind it is functional.
Series [10] has as its system Mus musculus. The experiment in a line: Number of positive paws that was inflamed by murine collagen -induced arthritis(MCIA) in mice after peroral administration 13 day at a concentration 120 mg/kg. As to conditions: route oral. Format: functional.
The test system of series [11] is Mus musculus. The experiment in a line: Number of paws at risk inflamed by murine collagen -induced arthritis(MCIA) in mice after peroral administration at a concentration 45 mg/kg. In kind it is functional. As to conditions: route oral.
Series [12] relates to Mus musculus. The series is described as follows: Number of paws at risk inflamed by murine collagen -induced arthritis(MCIA) in mice after peroral administration at a concentration 15 mg/kg. Format: functional. As to conditions: route oral.
Series [13] has as its system Mus musculus. The experiment in a line: Inhibition of murine collagen -induced arthritis(MCIA) in mice after peroral administration at a concentration 15 mg/kg. In kind it is functional. As to conditions: route oral.
Series [14] relates to Mus musculus. The experiment in a line: Reduction of murine collagen -induced arthritis(MCIA) in mice after peroral administration at a concentration 2 mg/kg. Format: functional. As to conditions: route oral.
Series [15] can be described thus: Plasma concentration in dogs after 2 hr at 30mg/kg oral dose. Format: ADME, organism-based, Canis lupus familiaris. As to conditions: dog, read-out: Conc_plasma.
Series [16] has as its system Mus musculus. The series is described as follows: Inhibition of murine collagen -induced arthritis(MCIA) in mice after peroral administration at a concentration 120 mg/kg. Format: functional. As to conditions: route oral.
Series [17] relates to Mus musculus. The series is described as follows: Inhibition of murine collagen -induced arthritis(MCIA) in mice after peroral administration at a concentration 2 mg/kg. As to conditions: route oral. In kind it is functional.
Series [18] concerns Mus musculus. The series is described as follows: Number of positive paws that was inflamed by murine collagen -induced arthritis(MCIA) in mice after peroral administration 13 day at a concentration 15 mg/kg. In kind it is functional. As to conditions: route oral.
Series [19] deals with Mus musculus. The series is described as follows: Number of positive paws that was inflamed by murine collagen -induced arthritis(MCIA) in mice after peroral administration 13 day at a concentration 5 mg/kg. In kind it is functional. As to conditions: route oral.
The subject of series [20] is Mus musculus. The experiment in a line: Number of paws at risk inflamed by murine collagen -induced arthritis(MCIA) in mice after peroral administration at a concentration 2 mg/kg. In kind it is functional. As to conditions: route oral.
The subject of series [21] is Mus musculus. The experiment in a line: Inhibition of murine collagen -induced arthritis(MCIA) in mice after peroral administration at a concentration 5 mg/kg. As to conditions: route oral. In kind it is functional.
Series [22] deals with Mus musculus. The series is described as follows: Number of paws at risk inflamed by murine collagen -induced arthritis(MCIA) in mice after peroral administration at a concentration 120 mg/kg. Format: functional. As to conditions: route oral.
Series [23] in a line: Plasma concentration in rats after 7 hr at 30mg/kg oral dose. In kind it is ADME, organism-based. As to conditions: rat, read-out: Conc_plasma.
For series [24], the system named is Mus musculus. The series is described as follows: Reduction of murine collagen -induced arthritis(MCIA) in mice after peroral administration at a concentration 5 mg/kg. Format: functional. As to conditions: route oral.
For series [25], the system named is Mus musculus. The experiment in a line: Number of positive paws that was inflamed by murine collagen -induced arthritis(MCIA) in mice after peroral administration 13 day at a concentration 45 mg/kg. In kind it is functional. As to conditions: route oral.

The values that follow come from ChEMBL document CHEMBL1136350, “Design and synthesis of orally active inhibitors of TNF synthesis as anti-rheumatoid arthritis drugs” (Bioorg Med Chem Lett, 2003).

In turn, `COc1ccc(C2=CCN(S(=O)(=O)N3CCCC[C@@H]3C(=O)NO)CC2)cc1` came in with an IC50 with MONO-MAC-6 (Homo sapiens, MONO-MAC-6) of 15000 nM. This lies in the double-digit micromolar range.

As to `CCCc1ccc(C2=CCN(S(=O)(=O)N3CCCC[C@@H]3C(=O)NO)CC2)cc1`, in the series on MONO-MAC-6 (Homo sapiens, MONO-MAC-6), 2600 nM corresponded to half-maximal inhibition (IC50).

`O=C(NO)[C@H]1CN(CC(F)(F)F)CCN1S(=O)(=O)N1CC=C(c2ccc(F)cc2)CC1` showed an AUC in series [1] of 3260 ng·h/mL. Moreover, the IC50 with MONO-MAC-6 (Homo sapiens, MONO-MAC-6) was 300 nM.

For `O=C(NO)[C@H]1CCCCN1S(=O)(=O)N1CC=C(c2ccc(F)c(F)c2)CC1`, in the series with MONO-MAC-6 (Homo sapiens, MONO-MAC-6), half-maximal inhibition (IC50) was put at 1200 nM.

Regarding `O=C(NO)[C@H]1CCCCN1S(=O)(=O)N1CC=C(c2ccccc2)CC1`, in the series with MONO-MAC-6 (Homo sapiens, MONO-MAC-6), half-maximal inhibition (IC50) was put at 240 nM. This IC50 is about 5-fold lower than that of the compound before.

Compound `O=C(NO)[C@H]1CCCCN1S(=O)(=O)N1CC=C(c2ccc(Br)cc2)CC1` returned a 50% inhibitory concentration (IC50) in the series with MONO-MAC-6 (Homo sapiens, MONO-MAC-6) of 1200 nM.

With `O=C(NO)[C@H]1CNCCN1S(=O)(=O)N1CC=C(c2ccc(F)cc2)CC1`, the AUC entry in the series on Rattus norvegicus is listed as “Not Active”. This compound also showed an IC50 with MONO-MAC-6 (Homo sapiens, MONO-MAC-6) of 3560 nM.

`CCc1cccc(C2=CCN(S(=O)(=O)N3CCCC[C@@H]3C(=O)NO)CC2)c1` came in with an IC50 in the series with MONO-MAC-6 (Homo sapiens, MONO-MAC-6) of 320 nM.

For `C[C@@H](NS(=O)(=O)N1CC=C(c2ccc(Cl)cc2)CC1)C(=O)NO`, 1240 nM corresponded to half-maximal inhibition in the series with MONO-MAC-6 (Homo sapiens, MONO-MAC-6) (IC50).

Take `O=C(NO)[C@H]1CCCCN1S(=O)(=O)N1CC=C(c2cccc(-c3ccccc3)c2)CC1`: the 50% inhibitory concentration (IC50) with MONO-MAC-6 (Homo sapiens, MONO-MAC-6) amounted to 7600 nM. Compared with the last compound, the IC50 is about 6.1-fold higher.

Take `O=C(NO)[C@H]1CCCCN1S(=O)(=O)N1CC=C(c2ccc(F)cc2)CC1`: the Cmax in series [2] was found to be 117 ng/mL; in series [3] it was 3060 ng/mL. In the series on MONO-MAC-6 (Homo sapiens, MONO-MAC-6), this compound returned an IC50 of 300 nM.

Take `C[C@@H](NS(=O)(=O)N1CCC(c2ccc(Cl)cc2)CC1)C(=O)NO`: the midpoint of inhibition in the series with MONO-MAC-6 (Homo sapiens, MONO-MAC-6), the IC50, lay at 5800 nM.

`CN(C)C(=O)N1CCN(S(=O)(=O)N2CC=C(c3ccc(F)cc3)CC2)[C@@H](C(=O)NO)C1`: the Severity with Mus musculus [4] was found to be 2.4; in the series on Mus musculus [11], 2.9; in the series with Mus musculus [12], 2.8; in the series with Mus musculus [20], 2.7; in the series with Mus musculus [22], 1. Moreover, the Max score stood at 3.8 in the series on Mus musculus [5]; 4.5 with Mus musculus [13]; 0.3 with Mus musculus [16]; 2.9 in the series on Mus musculus [17]; 2.7 in the series with Mus musculus [21]. Moreover, the Positive paws in the series on Mus musculus [6] came to 27%; with Mus musculus [10], 4%; in the series with Mus musculus [18], 41%; with Mus musculus [19] it was 30%; in the series with Mus musculus [25], 33%. Also, the inhibition in vivo at 15 mg/kg in the series on Mus musculus [7] came out at 49%. The Cmax in [2] worked out at 182 ng/mL; in series [3], 1050 ng/mL. This compound also registered an inhibition in vivo at 45 mg/kg in the series with Mus musculus [8] of 56%. This compound displayed an inhibition in vivo at 120 mg/kg with Mus musculus [9] of 96%. The AUC in series [1] turned out to be 6180 ng·h/mL. In addition, the inhibition in vivo at 2 mg/kg with Mus musculus [14] worked out at 67%. The concentration at 2 h in series [15] came to 110 ng/mL. Moreover, it took 200 nM to reach half-maximal inhibition in the series with MONO-MAC-6 (Homo sapiens, MONO-MAC-6) (IC50). In addition, the concentration at 7 h in series [23] turned out to be 233 ng/mL. Besides, in the series on Mus musculus [24], the inhibition in vivo at 5 mg/kg is 69%.

In the case of `O=C(NO)[C@H]1CN(C(=O)N2CCOCC2)CCN1S(=O)(=O)N1CC=C(c2ccc(F)cc2)CC1`, the AUC in series [1] turned out to be 7940 ng·h/mL. The compound also had an IC50 in the series on MONO-MAC-6 (Homo sapiens, MONO-MAC-6) of 350 nM.

Consider `O=C(NO)[C@H]1CCCCN1S(=O)(=O)N1CC=C(c2ccc(Oc3ccccc3)cc2)CC1`, for which, in the series with MONO-MAC-6 (Homo sapiens, MONO-MAC-6), the IC50 is 3300 nM.

Take `CN(C)S(=O)(=O)N1CCN(S(=O)(=O)N2CC=C(c3ccc(F)cc3)CC2)[C@@H](C(=O)NO)C1`: in series [1], the AUC was determined as 3270 ng·h/mL. Also, in the series on MONO-MAC-6 (Homo sapiens, MONO-MAC-6), the IC50 came out at 250 nM.

In turn, `O=C(NO)[C@H]1CCCCN1S(=O)(=O)N1CC=C(c2ccc(-c3ccccc3)cc2)CC1` showed an IC50 in the series with MONO-MAC-6 (Homo sapiens, MONO-MAC-6) of 19000 nM.

Turning to `CN(C)P(=O)(N(C)C)N1CCN(S(=O)(=O)N2CC=C(c3ccc(F)cc3)CC2)[C@@H](C(=O)NO)C1`, the AUC in series [1] turned out to be 1540 ng·h/mL. The compound also yielded an IC50 with MONO-MAC-6 (Homo sapiens, MONO-MAC-6) of 510 nM.

Compound `CNC(=O)N1CCN(S(=O)(=O)N2CC=C(c3ccc(F)cc3)CC2)[C@@H](C(=O)NO)C1` registered an AUC in series [1] of 1790 ng·h/mL. The compound further registered an IC50 with MONO-MAC-6 (Homo sapiens, MONO-MAC-6) of 120 nM.

In the series with MONO-MAC-6 (Homo sapiens, MONO-MAC-6), `COc1cccc(C2=CCN(S(=O)(=O)N3CCCC[C@@H]3C(=O)NO)CC2)c1` had an IC50 of 260 nM.

Take `O=C(NO)[C@H]1CCCCN1S(=O)(=O)N1CC=C(c2ccc(Cl)cc2)CC1` (stereo in doubt; 3): in the series on MONO-MAC-6 (Homo sapiens, MONO-MAC-6), the IC50 was found to be 430 nM.

As for `O=C(NO)[C@H]1CCCCN1S(=O)(=O)N1CC=C(c2ccc(Cl)cc2)CC1` (stereo in doubt; 6), half-maximal inhibition in the series on MONO-MAC-6 (mono-mac-6) (IC50) was put at 480 nM.

As usually defined, the IC50 is the concentration that gives 50% inhibition. Broadly, the AUC is the area under the concentration-time curve, a measure of exposure. A word on the Cmax: it is the peak of the concentration-time curve. A word on the inhibition in vivo: it is how much of the control response was suppressed.
